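Assay format: 96-well plates, 48-hour exposure. GI50 = concentration required for 50% inhibition of growth.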 Calls of active or inactive are those of the source. No stated cut-off is given here; in the data, active = GI50 up to about 1.1 µM and inactive = higher.
Tests used:
Assay in all cases: NCI anticancer screen, dose series, 48 h
[1] = system: CCRF-CEM
[2] = system: OVCAR-3
[3] = system: SW-620
[4] = system: U-251
[5] = system: A498
[6] = system: OVCAR-4
[7] = system: HL-60
[8] = system: SNB-19
[9] = system: SN12C
[10] = system: KM12
[11] = system: HCT-116
[12] = system: LOX IMVI
[13] = system: Malme-3M
[14] = system: NCI-H460
[15] = system: OVCAR-5
[16] = system: A549
[17] = system: IGROV-1
[18] = system: SF-295
[19] = system: SK-OV-3
[20] = system: TK-10

| SMILES | GI50 [1] | GI50 [2] | GI50 [3] | GI50 [4] | GI50 [5] | GI50 [6] | GI50 [7] | GI50 [8] | GI50 [9] | GI50 [10] | GI50 [11] | GI50 [12] | GI50 [13] | GI50 [14] | GI50 [15] | GI50 [16] | GI50 [17] | GI50 [18] | GI50 [19] | GI50 [20] |
| --- | --- | --- | --- | --- | --- | --- | --- | --- | --- | --- | --- | --- | --- | --- | --- | --- | --- | --- | --- | --- |
| Cc1c2ccncc2c(C)c2c1[nH]c1ccc(OCCN(C)C)cc12 | 0.024 µM (active) | 0.333 µM (active) | 0.0353 µM (active) | 0.209 µM (active) | 1.19 µM (inactive) | 0.135 µM (active) | 0.136 µM (active) | 0.256 µM (active) | 0.309 µM (active) | 0.105 µM (active) | 0.0455 µM (active) | 0.063 µM (active) | 1.16 µM (inactive) | 0.0308 µM (active) | 0.433 µM (active) | 0.198 µM (active) | 0.388 µM (active) | 0.125 µM (active) | 0.501 µM (active) |  |
| CC1SC2=NC3=C(c4ccccc4C3=O)C(c3ccccc3Cl)N2C1=O (configuration not stated) | 70.3 µM (inactive) | > 100 µM (inactive) | > 100 µM (inactive) | > 100 µM (inactive) | > 100 µM (inactive) | 86.1 µM (inactive) | > 100 µM (inactive) | > 100 µM (inactive) | > 100 µM (inactive) | > 100 µM (inactive) | > 100 µM (inactive) | > 100 µM (inactive) | > 100 µM (inactive) | > 100 µM (inactive) | > 100 µM (inactive) | > 100 µM (inactive) | > 100 µM (inactive) | > 100 µM (inactive) | > 100 µM (inactive) | > 100 µM (inactive) |
| COc1cc(C(=O)CC2OC(=O)C(Cl)=C2Cl)ccc1Cl (configuration not stated) | 69 µM (inactive) | > 100 µM (inactive) | > 100 µM (inactive) | > 100 µM (inactive) | > 100 µM (inactive) | > 100 µM (inactive) | > 100 µM (inactive) | > 100 µM (inactive) | > 100 µM (inactive) | > 100 µM (inactive) | > 100 µM (inactive) | > 100 µM (inactive) | > 100 µM (inactive) | > 100 µM (inactive) | > 100 µM (inactive) | > 100 µM (inactive) | > 100 µM (inactive) | > 100 µM (inactive) | > 100 µM (inactive) | > 100 µM (inactive) |
| CCOC(=O)c1c(Cl)nc2ccccc2c1N=[N+]=[N-] | 41 µM (inactive) | 19.5 µM (inactive) | 19.5 µM (inactive) | 24.5 µM (inactive) | > 100 µM (inactive) | 16.9 µM (inactive) | 67 µM (inactive) | > 100 µM (inactive) | 16.8 µM (inactive) | 16.2 µM (inactive) | 20.7 µM (inactive) | 20.5 µM (inactive) | 34.8 µM (inactive) | 23.7 µM (inactive) | 19.3 µM (inactive) | 66.8 µM (inactive) | 22 µM (inactive) | 23.9 µM (inactive) | 70.5 µM (inactive) | 31.9 µM (inactive) |
| CC(C)=CCC/C(C)=C/CC/C(C)=C/C(O)c1ccccc1 (configuration not stated) | 23.1 µM (inactive) | 20.1 µM (inactive) | 20.2 µM (inactive) | 18.2 µM (inactive) | 19.5 µM (inactive) | > 10 µM (inactive) | 22.5 µM (inactive) | 20.2 µM (inactive) | 19.1 µM (inactive) | 23.6 µM (inactive) | 17.9 µM (inactive) | 19.6 µM (inactive) | 19.2 µM (inactive) | 19.5 µM (inactive) | 18.3 µM (inactive) |  | 19.8 µM (inactive) | 18.1 µM (inactive) | 21.8 µM (inactive) | 29.1 µM (inactive) |
| COC1(O)c2cccc(Cl)c2C(=O)N1C1(C(N)=O)CCCCC1 (configuration not stated) | > 100 µM (inactive) | > 100 µM (inactive) | > 100 µM (inactive) | > 100 µM (inactive) | > 100 µM (inactive) | > 100 µM (inactive) | > 100 µM (inactive) | > 100 µM (inactive) | > 100 µM (inactive) | > 100 µM (inactive) | > 100 µM (inactive) | > 100 µM (inactive) | > 100 µM (inactive) | > 100 µM (inactive) | > 100 µM (inactive) | > 100 µM (inactive) | > 100 µM (inactive) | > 100 µM (inactive) | > 100 µM (inactive) |  |

From ChEMBL document CHEMBL1201862, “PubChem BioAssay data set” (2004)
